Assay results taken from patent US9333208B2, “HCN inhibitors affecting ganglion cell function and visual function” (Allergan, Inc., priority 2013, dated 2016).

What was measured:
[1] = system: HCN channel current (Ih); assay: HCN channel current (Ih) measurement, voltage clamp of retinal ganglion cells; assay type: cell-based, Brown Norway rats; conditions: different concentrations; clamped at -60 mV, stepped to -80, -100 and -120 mV for 1 second; FIG. 11
[2] = system: retinal ganglion cells; assay: Retinal ganglion cell input resistance measurement, voltage clamp; assay type: cell-based, Brown Norway rats; conditions: different concentrations; clamped at -60 mV, stepped to -55 mV; FIG. 12

COc1cc2c(cc1OC)CC(=O)N(CCCN(C)C[C@H]1Cc3cc(OC)c(OC)cc31)CC2 [Ivabradine, 3-[3-({[(7S)-3,4-dimethoxybicyclo[4.2.0]octa-1,3,5-trien-7-yl]methyl}(methyl)amino)propyl]-7,8-dimethoxy-2,3,4,5-tetrahydro-1H-3-benzazepin-2-one]
retinal ganglion cell HCN (Ih) mediated current [1]: statistically significant decrease
retinal ganglion cell input resistance [2]: increased with every concentration of Ivabradine in a linear manner
